Values of other authors in US11530413B2, “Compositions and methods to treat cancer” (NOVARTIS AG, priority 2017, dated 2022).
Like-named read-outs stand apart in the source and are kept apart here.

Legend:
CDK2 = conditions: read-out: Ki as CDK inhibitor
CBFB [1] = target: T1, CBFB (Homo sapiens, UniProt Q13951); conditions: read-out: IC50 as CBFB inhibitor
T1 sequence (Q13951 1-182): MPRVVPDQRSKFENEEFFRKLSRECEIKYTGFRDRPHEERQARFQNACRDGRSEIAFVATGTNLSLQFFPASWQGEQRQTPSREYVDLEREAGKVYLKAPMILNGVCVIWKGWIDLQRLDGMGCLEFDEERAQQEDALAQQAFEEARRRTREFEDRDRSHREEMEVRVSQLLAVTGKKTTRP

CDK = conditions: read-out: IC50 as multi-CDK inhibitor
[2] = target: T2, CBFbeta association with Runx1 (Homo sapiens, UniProt Q13951)
T2 sequence (Q13951 1-141 limits assumed): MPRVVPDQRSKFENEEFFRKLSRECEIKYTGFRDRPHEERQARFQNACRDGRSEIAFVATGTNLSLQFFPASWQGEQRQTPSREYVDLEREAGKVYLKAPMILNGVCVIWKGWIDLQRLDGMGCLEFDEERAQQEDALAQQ

GATA3 = conditions: target of the IC50 not stated; named as GATA3 inhibitor; read-out: IC50 of the steroid
MITF = target: T3, MITF (Homo sapiens, UniProt O75030); conditions: read-out: IC50 as MITF inhibitor
T3 sequence (O75030 1-526): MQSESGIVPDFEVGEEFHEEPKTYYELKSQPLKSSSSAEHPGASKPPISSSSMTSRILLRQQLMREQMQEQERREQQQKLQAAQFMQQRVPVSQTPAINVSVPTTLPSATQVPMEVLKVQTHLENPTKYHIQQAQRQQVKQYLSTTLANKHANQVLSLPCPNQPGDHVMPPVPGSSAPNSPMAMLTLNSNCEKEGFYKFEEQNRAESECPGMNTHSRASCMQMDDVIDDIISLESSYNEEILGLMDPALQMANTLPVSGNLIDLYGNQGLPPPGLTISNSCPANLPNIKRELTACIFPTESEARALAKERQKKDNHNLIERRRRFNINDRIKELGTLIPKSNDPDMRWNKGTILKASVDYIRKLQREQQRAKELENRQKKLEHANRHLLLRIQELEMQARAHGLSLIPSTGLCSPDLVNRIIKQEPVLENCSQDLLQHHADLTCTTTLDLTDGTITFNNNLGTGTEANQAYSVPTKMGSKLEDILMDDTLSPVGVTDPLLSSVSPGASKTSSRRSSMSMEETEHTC

CBFB [3] = target: T1, CBFB; conditions: read-out: IC50 as CBFB inhibitor; remark: listed apart in the source
FLI1 = conditions: read-out: IC50 as FLI1 inhibitor

For `CCNCc1cncc(-c2cccc3[nH]nc(-c4nc5c(F)cc(F)cc5[nH]4)c23)c1C` [AG-024322, N-((5-(3-(4,6-difluoro-1H-benzo[d]imidazol-2-yl)-1H-indazol-4-yl)-4-methylpyridin-3-yl)methyl)ethanamine], the Ki (CDK2) is given as 1 to 3 nM.
For `COc1cccnc1-c1nc2cc(OC(F)(F)F)ccc2[nH]1` [AI-10-104], the IC50 (CBFB [1]) is listed as 1250 nM.
In the case of `O=C(NC1CCNCC1)c1n[nH]cc1NC(=O)c1c(Cl)cccc1Cl` [AT7519, 4-[(2,6-Dichlorobenzoyl)amino]-N-(4-piperidinyl)-1H-pyrazole-3-carboxamide], the IC50 (CDK) is listed as 10 to 210 nM.
For `CCc1sc(N)nc1-c1ccc(OC)cc1` [CBFB inhibitor, 5-ethyl-4-(4-methoxyphenyl)-2-thiazolamine], the “IC50, binds CBFbeta and prevents its association with Runx1” value [2] is given as 3200 nM.
For `C[C@@H]1C[C@H]2[C@@H]3CCC4=CC(=O)C=C[C@]4(C)[C@@]3(F)[C@@H](O)C[C@]2(C)[C@@]1(O)C(=O)CO` [Dexamethasone, (8S,9R,10S,11S,13S,14S,16R,17R)-9-Fluoro-11,17-dihydroxy-17-(2-hydroxyacetyl)-10,13,16-trimethyl-6,7,8,9,10,11,12,13,14,15,16,17-dodecahydro-3H-cyclopenta[a]phenanthren-3-one], the IC50 (GATA3) is listed as 10 nM.
In the case of `CN1CC[C@H](c2c(O)cc(O)c3c(=O)cc(-c4ccccc4Cl)oc23)[C@H](O)C1` [Flavopiridol, 2-(2-chlorophenyl)-5,7-dihydroxy-8-[(3S,4R)-3-hydroxy-1-methyl-4-piperidinyl]-4-chromenone], the IC50 (CDK) is listed as ~40 nM.
For `NS(=O)(=O)c1ccc(NC2=CC(=O)c3ccccc3C2=O)cc1` [ML329, 4-((1,4-dioxo-1,4-dihydronaphthalen-2-yl)amino)benzenesulfonamide], the IC50 (MITF) is given as 1200 nM.
For `O=C1CN=C(c2ccc[nH]2)c2cc(Cl)ccc2N1` [Ro5-3335, 7-Chloro-1,3-dihydro-5-(1H-pyrrol-2-yl)-2H-1,4-benzodiazepin-2-one], the IC50 (CBFB [3]) is listed as 1100 nM.
For `COc1ccc(C(=O)C[C@]2(O)C(=O)Nc3c(Cl)ccc(Cl)c32)cc1` [TK-216, 4,7-dichloro-1,3-dihydro-3-hydroxy-3-[2-(4-methoxyphenyl)-2-oxoethyl]-(3R)-2H-indol-2-one], the IC50 (FLI1) is listed as 449 nM.
